In patent publication US20220380383A1, “NEUROPROTECTIVE PDI MODULATING SMALL MOLECULES AND METHODS OF USE THEREOF” (THE TRUSTEES OF COLUMBIA UNIVERSITY IN THE CITY OF NEW YORK, priority 2018, published 2022):
≈ marks a conversion by molar mass, not a printed value.

How the values were obtained:
PC12 mHTTQ103 cells [1] = assay: Trypan blue viability assay; format: cell-based, rat; conditions: 3 μM, 24 hours
Method: (§1) In FIG. 14B, cells were stained with 5 μM CeIIROX Orange dye to assay cellular ROS production. Representative data from one of three flow cytometry replicates are shown. In FIG. 14C, an aliquot from each sample was used for assessing viability, using Trypan blue dye on ViCell. […] Data are plotted as mean±SD with n=3.
(§2) One goal was to further understand why modulating PDI activity can be neuroprotective in AD and HD models. Previously, we saw that LOC14 alters PDI's redox state from the reduced to the oxidized conformation (Kaplan et al. 2015). In vivo, there are oxidoreductase enzymes, such as ERO1, that regulate PDI's redox states and, as a byproduct of the redox reaction, pass electrons to oxygen as a final electron acceptor, generating H2O2. We hypothesized that LOC14 might function in place of oxidoreductases such as ERO1, oxidizing PDI without generating H2O2 and that this decrease in ROS production is what is causing the neuroprotection in cells and neurons. […] Cells were then stained with the fluorescent ROS-sensitive dye, CeIIROX Orange, and ROS assayed by flow cytometry. Induced mHTT-expressing cells had elevated levels of ROS compared to cells not expressing mHTT (uninduced cells) and these ROS were decreased in cells treated with LOC14 (FIG. 14B). […]

[2] = test system: ROS in PC12 mHTTQ103 cells; assay: CellROX Orange flow cytometry ROS assay; format: cell-based, rat; conditions: 3 μM, 24 hours, mHTT-induced cells
Method: as §1, §2

[3] = biological target: T1, human catalytic PDI A1 a domain (PDIa) (Homo sapiens, UniProt P07237); assay: Isothermal titration calorimetry (ITC) binding to PDIa; conditions: Tables 5-13; NA = not active; read-out: Kd
T1 construct: made in house; host or cells: Escherichia coli BL21-Gold (DE3)
T1 sequence (P07237 18-134): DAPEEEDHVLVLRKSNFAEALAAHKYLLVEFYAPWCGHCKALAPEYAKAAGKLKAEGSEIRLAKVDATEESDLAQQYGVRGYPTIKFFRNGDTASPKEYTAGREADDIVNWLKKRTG

[4] = biological target: T2, PDIa C56S mutant (PDI C39S) (Homo sapiens, UniProt P07237, C56S); assay: MALDI-TOF mass spectrometry with PDIa C56S mutant; format: binding
T2 construct: made in house; host or cells: E. coli
T2 sequence (P07237 18-134 C56S): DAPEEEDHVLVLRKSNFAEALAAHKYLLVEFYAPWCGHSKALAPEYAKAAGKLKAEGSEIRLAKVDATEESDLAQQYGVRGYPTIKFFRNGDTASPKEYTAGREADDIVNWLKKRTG
Text: We also explored the feasibility of generating a crystal structure of PDI bound to one of these inhibitors for structure-based analog design. LOC14 is a reversible inhibitor of PDI and therefore may not remain bound to the protein in crystallization trays. To trap the LOC14-PDI complex, we generated a PDI C39S mutant that should not release the compound from PDI. To confirm this mechanism of binding, we performed MALDI-TOF mass-spectrometry experiments with PDI C39S in the presence and absence of LOC14 (FIG. 4). […] PDI C39S treated with LOC14 gave 4 peaks: main mass peak at 15,557 Da (change of +152 which corresponds to the bound benzoisothiazolone moiety to PDI C39S), a peak at 15,735 Da (corresponding to the benzoisothiazolone moiety bound to C39S-gluconoylated protein), a peak at 15,404 (the mass of unbound C39S protein), and a peak at 15,584 Da (the mass of unbound C39S-gluconoylated protein). […] The incomplete binding is most likely due to the presence of reducing agent in the buffer. […]
To confirm that binding of LOC14 to PDI is reversible, we pre-treated a C56S mutant, as before, with LOC14, BIT, or iodoacetamide, an irreversible modifier of cysteines. Once the PDI-inhibitor complexes were formed, we treated the samples with 2.7 mM DTT, a reducing agent, and analyzed the complex by MALDI-TOF.

[5] = Solubility (stock solvent); conditions: Tables 5-13; solvent not given (DMSO in Table 1)
PC12 mHTTQ103 cells [6] = assay: Rescue of PC12 cells from mHTTQ103-induced cell death; format: cell-based, rat; conditions: Tables 5-13, PC12 cells
[7] = test system: neuronal redox state (roGFP2); assay: roGFP2 redox reporter in primary neurons; format: cell-based; conditions: 30 min treatment
Method: […]. Rat coronal brain slice explants co-transfected with YFP and Tau-4R (FIG. 16B) or striatal brain slice explants co-transfected with YFP and mHTT (FIG. 16C) were treated with LC-43 or DMSO carrier-only for 3 days. The respective regions of each brain slice were then scored for numbers of healthy (FIG. 16B) pyramidal or (FIG. 16C) medium spiny neurons remaining. Data are normalized to the negative control condition set to 100% and plotted as means±SEM. In FIG. 16D, The confocal images shown are maximal z-stacks of 0.5 μm steps (˜20 images per stack). (Bottom) Reduction of neuronal redox state by LC-43. Left, Primary neurons were co-transfected with mCherry (to positively identify transfected neurons) and the genetically encoded ratiometric redox reporter roGFP2. Four days later, the culture medium was changed into an identical formulation except without conventional antioxidant additives. 24 hours after this medium change, LOC-43 or DMSO carrier-only were added to the neurons and images were taken after 30 minutes or 24 hours of treatment as indicated. Imaging was done using a Leica SP5 inverted confocal microscope through a 63× water-immersion objective. Images of 40 individual neurons for each condition were collected at 405 and 488 nm and analysis of the 405/488 ratio for each image pair was done using CellProfiler (Broad Institute).
As mentioned, we synthesized several fluorine-containing analogs of LOC14 (analogs LC-43 and LC-40). Addition of fluorine was the only modification that was tolerated at the ortho position without a complete loss of activity in cells and in targeting PDI in vitro (Table 9). […] Additionally, we evaluated LC-43 using a genetically encoded redox reporter transfected into neurons. […] In contrast, treatment with the non-selective reducing agent dithiothreitol (DTT) produces an immediate and dramatic reduction in the roGFP2 fluorescence ratio that leads rapidly to cell degeneration and death (FIG. 16D). […]

Structure (SMILES): O=C(C1CC1)N1CCN(Cn2oc3ccccc3c2=O)CC1 [OxyLOC14]
- protection from mHTT in trypan blue viability assay (PC12 mHTTQ103 cells [1]): did not show any protection from mHTT
- cellular ROS (CellROX Orange flow cytometry) [2]: did not decrease ROS

Structure (SMILES): O=c1[nH]sc2ccccc12 [BIT, benzoisothiazolone, reference compound]
- Kd [3]: 0.143 µM
- reversibility of binding to PDIa C56S after 2.7 mM DTT [4]: bind reversibly to C53
- Solubility [5]: 100 mM (≈ 15.1 mg/mL)
- EC50 (PC12 mHTTQ103 cells [6]; Rattus norvegicus, PC-12, read-out: EC50): 0.362 µM
- Max Viability (%) (PC12 mHTTQ103 cells [6]): 66%

Structure (SMILES): O[C@H](CS)[C@H](O)CS (racemic) [DTT, dithiothreitol, reference compound]
- neuronal redox state (roGFP2) [7]: immediate and drastic reduction

Structure (SMILES): NC(=O)CI [iodoacetamide]
- reversibility of binding to PDIa C56S after 2.7 mM DTT [4]: irreversible
